PMC11350758, “Development of Xanthoangelol-Derived Compounds with Membrane-Disrupting Effects against Gram-Positive Bacteria” (Antibiotics, 2024)
Values after ≈ are worked out from the molar mass of the structure shown.

What was measured:
[1] = test system: red blood cells; assay: Hemolysis assay; format: cell-based, Sheep; details: concentration required to lyse 50% of red blood cells; 37 °C, 1 h
Experimental: (§1) All target derivatives were assessed for their in vitro antibacterial activities using a broth microdilution assay to test their minimum inhibitory concentrations (MICs) against six Gram-positive strains (S. aureus ATCC31007, S. aureus ATCC25923, S. aureus ATCC43300, E. faecalis ATCC29212, B. subtilis ATCC9372, and S. epidermidis ATCC12228) and four Gram-negative strains (A. baumannii ATCC19606, K. pneumonia ATCC10031, E. coli ATCC25922, and P. aeruginosa ATCC27853). These compounds were also evaluated for their hemolytic activities and membrane selectivity by determining their HC50 (the concentration required to lyse 50% of red blood cells) and SI (HC50/MICs) values, respectively, and vancomycin was used as the positive drug.
To further detect the hemolytic toxicity and therapeutic potential of these derivatives, we proceeded to examine the hemolytic activities and membrane selectivity of these derivatives. The HC50 value was defined as the concentration needed for a compound to lyse 50% of red blood cells, and it is often used to evaluate the hemolytic toxicity to eukaryotic cells. […] The selectivity index (SI) was calculated by HC50/MICs of S. aureus ATCC43300 and was used to assess the potency and safety of the compounds. […] Thus, compound 9h was selected as a representative molecule for the in-depth in vitro and in vivo studies.
Sheep blood was used to isolate red blood cells (RBCs), which were then resuspended in 1× PBS (5%). The compounds were dissolved in PBS to give an initial concentration of 5.12 mg/mL, compound solution (100 μL) was added to the first well of a 96-well plate, two-fold serial dilutions of compounds were prepared in 96-well plates, and then 150 μL of 5% RBC suspension was added to each well. This was followed by incubation at 37 °C for 1 h. After incubation, the plate was centrifuged (3500 rpm, 5 min), and 100 μL of supernatant solution from each well was carefully pipetted into a new plate. The absorbance values were measured at 540 nm. Erythrocyte hemolysis rate = (Absorbancecompound – Absorbance negative control)/(Absorbance1% Triton X-100 − Absorbance negative control) × 100%. All biological experiments were repeated three times.

[2] = test system: Staphylococcus aureus ATCC43300, methicillin-resistant strain; assay: microbe, parasite or virus in culture; format: cell-based; details: Staphylococcus aureus ATCC43300 (MRSA); for MIC: ATCC 43300 / MRSA, read-out: MIC S. a 43300
Experimental: as §1
(§2) MICs of the derivatives were determined by the micro broth dilution method according to the American Clinical and Laboratory Standards Institute (CLSI) standards. Briefly, 2-fold serial dilutions of target compounds were prepared in 96-well plates containing TSB broth. An equal volume of bacterial suspension (10^6 CFU/mL) was then pipetted into each well, and the mixture was incubated at 37 °C for 24 h. […] All biological experiments were repeated three times.

[3] = test system: Enterococcus faecalis ATCC29212, vancomycin-susceptible strain; assay: MIC, broth microdilution; format: cell-based; details: Enterococcus faecalis ATCC29212; for MIC: read-out: MIC E. f. 29212
Experimental: as §1, §2

[4] = test system: Staphylococcus epidermidis ATCC12228, erythromycin-susceptible strain; assay: MIC, broth microdilution; format: cell-based; details: Staphylococcus epidermidis ATCC12228; for MIC: read-out: MIC S. e. 12228
Experimental: as §1, §2

[5] = test system: Klebsiella pneumonia ATCC10031; assay: MIC, broth microdilution; format: cell-based; details: Klebsiella pneumonia ATCC10031; for MIC: Klebsiella pneumoniae, read-out: MIC K. p. 10031
Experimental: as §1, §2

[6] = test system: Staphylococcus aureus ATCC31007, penicillin-resistant strain; assay: MIC, broth microdilution; format: cell-based; details: Staphylococcus aureus ATCC31007; for MIC: read-out: MIC S. a. 31007
Experimental: as §1, §2

[7] = test system: Staphylococcus aureus ATCC25923, erythromycin-susceptible strain; assay: MIC, broth microdilution; format: cell-based; details: Staphylococcus aureus ATCC25923; for MIC: read-out: MIC S. a. 25923
Experimental: as §1, §2

[8] = test system: Acinetobacter baumannii ATCC19606; assay: MIC, broth microdilution; format: cell-based; details: Acinetobacter baumannii ATCC19606; for MIC: read-out: MIC A. b. 19606
Experimental: as §1, §2

[9] = test system: Bacillus subtilis ATCC9372, penicillin-susceptible strain; assay: MIC, broth microdilution; format: cell-based; details: Bacillus subtilis ATCC9372; for MIC: read-out: MIC B. s. 9372
Experimental: as §1, §2

[10] = test system: Pseudomonas aeruginosa ATCC27853, penicillin-susceptible strain; assay: MIC, broth microdilution; format: cell-based; details: Pseudomonas aeruginosa ATCC27853; for MIC: read-out: MIC P. a. 27853
Experimental: as §1, §2

[11] = test system: Escherichia coli ATCC25922, penicillin-susceptible strain; assay: MIC, broth microdilution; format: cell-based; details: Escherichia coli ATCC25922; for MIC: read-out: MIC E. c. 25922
Experimental: as §1, §2

[12] = test system: Enterococcus faecium ATCC51559, vancomycin-resistant strain; assay: MIC, broth microdilution; format: cell-based; details: Enterococcus faecium ATCC51559, vancomycin-resistant; for MIC: read-out: MIC E. f. 51559
Experimental: as §2

[13] = test system: Enterococcus faecalis ATCC51299, vancomycin-resistant strain; assay: MIC, broth microdilution; format: cell-based; details: Enterococcus faecalis ATCC51299, vancomycin-resistant; for MIC: read-out: MIC E. f. 51299
Experimental: as §2

| Compound | HC50 [1] [µg/mL] | MIC [2] [µg/mL] | MIC [3] [µg/mL] | MIC [4] [µg/mL] | MIC [5] [µg/mL] | MIC [6] [µg/mL] | MIC [7] [µg/mL] | MIC [8] [µg/mL] | MIC [9] [µg/mL] | MIC [10] [µg/mL] | MIC [11] [µg/mL] | MIC [12] [µg/mL] | MIC [13] [µg/mL] | other results |
| --- | --- | --- | --- | --- | --- | --- | --- | --- | --- | --- | --- | --- | --- | --- |
| CCNCCCOc1c(C(C)=O)ccc2c1C=CC(C)(CCC=C(C)C)O2 (stereo not shown) [Compound 5b, 1-(5-(3-(Ethylamino)propoxy)-2-methyl-2-(4-methylpent-3-en-1-yl)-2H-chromen-6-yl)ethan-1-one] | 118.4 | 16 (≈ 43.1 µM) | 8 (≈ 21.5 µM) | 8 (≈ 21.5 µM) | 16 (≈ 43.1 µM) | 16 (≈ 43.1 µM) | 16 (≈ 43.1 µM) | 16 (≈ 43.1 µM) | 8 (≈ 21.5 µM) | > 128 | 32 (≈ 86.1 µM) | 32 (≈ 86.1 µM) | 32 (≈ 86.1 µM) | – |
| CC(=O)c1ccc2c(c1OCCCN1CC(C)OC(C)C1)C=CC(C)(CCC=C(C)C)O2 (stereo not shown) [Compound 5d, 1-(5-(3-(2,6-Dimethylmorpholino)propoxy)-2-methyl-2-(4-methylpent-3-en-1-yl)-2H-chromen-6-yl)ethan-1-one] | 746.5 | > 128 | > 128 | > 128 | 128 (≈ 290 µM) | > 128 | > 128 | 128 (≈ 290 µM) | > 128 | > 128 | > 128 | > 128 | > 128 | – |
| CC(=O)c1ccc2c(c1OCCCN1CCN(C(C)=O)CC1)C=CC(C)(CCC=C(C)C)O2 (stereo not shown) [Compound 5e, 1-(4-(3-((6-Acetyl-2-methyl-2-(4-methylpent-3-en-1-yl)-2H-chromen-5-yl)oxy)propyl)piperazin-1-yl)ethan-1-one] | 62.3 | 128 (≈ 282 µM) | 32 (≈ 70.4 µM) | 64 (≈ 141 µM) | > 128 | 128 (≈ 282 µM) | 128 (≈ 282 µM) | 128 (≈ 282 µM) | 64 (≈ 141 µM) | > 128 | > 128 | 128 (≈ 282 µM) | 128 (≈ 282 µM) | – |
| CC(=O)c1ccc2c(c1OCCCNCCN(C)C)C=CC(C)(CCC=C(C)C)O2 (stereo not shown) [Compound 5f, 1-(5-(3-((2-(Dimethylamino)ethyl)amino)propoxy)-2-methyl-2-(4-methylpent-3-en-1-yl)-2H-chromen-6-yl)ethan-1-one] | 127.7 | 8 (≈ 19.3 µM) | 8 (≈ 19.3 µM) | 8 (≈ 19.3 µM) | 8 (≈ 19.3 µM) | 16 (≈ 38.6 µM) | 16 (≈ 38.6 µM) | 8 (≈ 19.3 µM) | 8 (≈ 19.3 µM) | 32 (≈ 77.2 µM) | 8 (≈ 19.3 µM) | 32 (≈ 77.2 µM) | 32 (≈ 77.2 µM) | – |
| CC(=O)c1c(OCCC[n+]2ccccc2)c2c(c3c1OC(C)(CCC=C(C)C)C=C3)OC(C)(CCC=C(C)C)C=C2 (stereo not shown) [Compound 9b, 1-(3-((6-Acetyl-2,8-dimethyl-2,8-bis(4-methylpent-3-en-1-yl)-2H,8H-pyrano[2,3-f]chromen-5-yl)oxy)propyl)pyridin-1-ium] | 26.6 | 1 | 2 | 32 | 32 | 4 | 2 | 32 | 2 | > 128 | 128 | 4 | 4 | – |
| CNCCN(C)CCCOc1c2c(c3c(c1C(C)=O)OC(C)(CCC=C(C)C)C=C3)OC(C)(CCC=C(C)C)C=C2 (stereo not shown) [Compound 9f, 1-(2,8-Dimethyl-5-(3-(methyl(2-(methylamino)ethyl)amino)propoxy)-2,8-bis(4-methylpent-3-en-1-yl)-2H,8H-pyrano[2,3-f]chromen-6-yl)ethan-1-one] | 40.3 | 4 (≈ 7.08 µM) | 8 (≈ 14.2 µM) | 8 (≈ 14.2 µM) | 16 (≈ 28.3 µM) | 4 (≈ 7.08 µM) | 4 (≈ 7.08 µM) | 64 (≈ 113 µM) | 8 (≈ 14.2 µM) | > 128 | 128 (≈ 227 µM) | 8 (≈ 14.2 µM) | 4 (≈ 7.08 µM) | – |
| CCN(CC)CCCNCCCOc1c2c(c3c(c1C(C)=O)OC(C)(CCC=C(C)C)C=C3)OC(C)(CCC=C(C)C)C=C2 (stereo not shown) [Compound 9g, 1-(5-(3-((3-(Diethylamino)propyl)amino)propoxy)-2,8-dimethyl-2,8-bis(4-methylpent-3-en-1-yl)-2H,8H-pyrano[2,3-f]chromen-6-yl)ethan-1-one] | 34.9 | 4 (≈ 6.59 µM) | 1 (≈ 1.65 µM) | 1 (≈ 1.65 µM) | 8 (≈ 13.2 µM) | 4 (≈ 6.59 µM) | 2 (≈ 3.3 µM) | 4 (≈ 6.59 µM) | 2 (≈ 3.3 µM) | 32 (≈ 52.7 µM) | 4 (≈ 6.59 µM) | 32 (≈ 52.7 µM) | 32 (≈ 52.7 µM) | – |
| colistin [Cos, reference compound] | – | – | – | – | – | – | – | – | – | – | – | – | – | MIC S. a 43300 [2]: 128 µg/mL; MIC E. f. 29212 [3]: 128 µg/mL; MIC S. e. 12228 [4]: 64 µg/mL; MIC K. p. 10031 [5]: 1 µg/mL; MIC S. a. 31007 [6]: 128 µg/mL; MIC S. a. 25923 [7]: 128 µg/mL; MIC A. b. 19606 [8]: 1 µg/mL; MIC B. s. 9372 [9]: 16 µg/mL; MIC P. a. 27853 [10]: 0.5 µg/mL; MIC E. c. 25922 [11]: 0.5 µg/mL; MIC E. f. 51559 [12]: >128 µg/mL; MIC E. f. 51299 [13]: >128 µg/mL |
